Laboratory results reported in PMC5485444 (Antibiotics, 2017).
Values after ≈ are worked out from the molar mass of the structure shown. Like-named read-outs stand apart in the source and are kept apart here.

Assays:
[1] = Solubility in DMSO / DMSO-d6 observed during 1H NMR; type: physicochemical; settings: DMSO / DMSO-d6, NMR sample
Protocol: ^1H NMR was used to confirm the presence of AD in the AD-EM (Figure S1). Both EM and AD-EM were dissolved in deuterated dimethyl sulfoxide (DMSO-d6) and spectra acquired. The spectra are in agreement with the reported literature spectra, thus we looked to see changes in the spectra following the conjugation reaction. The processed spectra of each species were compared to monitor structural differences between protons from EM and AD-EM. The AD-EM spectra confirms the presence of both AD and EM, as well as hydrazone formation, indicating successful reaction. In the NMR spectra of AD-EM, AD attachment is confirmed by the presence of two multiplet peaks at approximately 1.9 ppm and from 1.6–1.8 ppm, corresponding to protons from the fused cyclohexane rings of AD. In the spectra of the AD-EM, a singlet peak, corresponding to a hydrazone, appears at 9.0 ppm. […] However, peak placement is consistent between AD-EM and EM, indicating the presence of both species in the AD-EM conjugate.
EM (approximately 40 mg) and AD-EM (approximately 40 mg) were dissolved in 500 µL of DMSO-d6, and sonication was used to promote dissolution. Samples were analyzed on a 600 MHz Varian Nuclear Magnetic Resonance Spectrometer, using 128 scans and a 45 degree pulse angle. Spectra were analyzed using MesReNova software using the residual solvent peak from DMSO-d6 as the reference.

S. aureus biofilms [2] = assay: Bacterial biofilm penetration study (colonies remaining in mature biofilm); type: cell-based, Staphylococcus aureus; settings: 48 and 72 h exposure, data not shown
S. aureus biofilms [3] = assay: as above; type: cell-based, Staphylococcus aureus; settings: for % Control Colonies Remaining: 1.25 mg/mL, mature (72 h) biofilm, vs 90% PBS/10% DMSO control; for Original colonies in the biofilm eradicated: 1 h exposure; for Original colonies killed: 7 h exposure; for Additional killing compared to the 7 h time point: 24 h exposure
Protocol: The ability to penetrate through the biofilm is related to the number of bacteria remaining in the biofilm after exposure to a drug compared to the control condition (90% PBS/10% DMSO). The control condition was set-up in such a way that the biofilm coated cyclodextrin polymer was placed in a solution under the same conditions used to make the drug-containing solutions. The colonies remaining in the biofilms after 1, 7, and 24 h after being treated with AD-EM, EM, or the control solution are reported in Table 2, where the remaining colonies from drug-treated biofilms are compared to the number of colonies in a control solution. After only 1 h of exposure to the drug (AD-EM or EM), nearly 30% of the original colonies in the biofilm were eradicated, and after 7 h of drug (AD-EM or EM) exposure >85% of the original colonies were killed. […] We hypothesize that this could be due to presence of planktonic bacteria naturally resistant to antibiotic effect, as well as the development of drug-resistant bacteria that are unable to be fully eradicated even after extended periods of exposure time to the drug. […] High variability in the studies reflects both the inconsistent nature of the biofilm as well as difficulty recovering bacteria to make accurate counts.
5 mm insoluble cyclodextrin polymer disks were placed in 3 mL solutions of 2× Trypticase soy broth with 30 μL of freshly cultured GFP-labeled S. aureus. Solutions were incubated at 37 °C for 72 h to form a mature biofilm. Each condition was set-up in triplicate. Following incubation, polymer disks were removed from the bacterial culture, excess broth removed, and placed in a 1.25 mg/mL drug solution of either EM or AD-EM dissolved in PBS with 10% DMSO. As a control, biofilm coated disks were also placed in a solution of just PBS and 10% DMSO. Each solution was placed in a laboratory shaker at 37 °C for either 1, 7, or 24 h. After this time, disks were removed from the drug solution, dried off, and placed in 4 mL of sterile Trypticase soy broth and homogenized for 30 s with an Omni TH homogenizer. Then, 70 μL of each solution was spread in duplicate on Trypticase soy agar plates and incubated overnight. Bacterial colonies were then counted and averaged using ImageJ software. Bacterial eradication was calculated as the percentage of colonies remaining in drug treated samples after different time points compared to the control colonies at that time point.

[4] = Solubility study in aqueous buffers and organic solvents; type: physicochemical
Protocol: The solubility of AD-EM compared to EM was evaluated in several different aqueous buffers (i.e., PBS, Water, Acetate pH 5.0) and polar solvents (i.e., methanol, ethyl acetate, acetone). The solubility study presented in Table 1 further verifies that modified AD-EM is more hydrophobic than EM due to the addition of the hydrophobic AD group. […] The increased hydrophobicity of AD-EM is desirable to enhance its ability to bind to tissue, thereby increasing its tissue residence time and therapeutic activity.
Small samples of both EM and AD-EM (1–3 mg samples for aqueous solvents (water, PBS (pH 7.4), and acetate buffer (pH 5.0)); 10 mg samples for methanol, ethyl acetate, and acetone) were placed in individual vials. Each solvent was gradually added to either the EM or AD-EM samples in 50–100 µL increments until the drug sample was completely dissolved and the solution was homogeneous. Three trials were completed for each drug in each solvent and the results are reported as an average of these three trials. The solubility limit of each drug was determined to be the minimum amount of volume of each solvent where the drug was completely soluble.

[5] = Acidic stability / acidic conversion absorbance spectral scan; type: physicochemical; settings: for Acidic conversion over several hours (absorbance pattern, words): pH 5.0 vs neutral vs acidic later neutralized, t = several hours
Protocol: The PBS solution was diluted to a concentration of 70 μM and concentrated sulfuric acid ([…]) was added to the solution in a volume equal to that of the total volume of the initial 70 µM solution to elicit a color change detectable with absorbance spectroscopy. Two separate solutions were initially created with the acetate buffer. One solution was diluted to 70 μM and allowed to sit for several hours at room temperature. The other acetate solution was diluted to a slightly higher concentration, sat for 1 h at room temperature, was neutralized with sodium hydroxide (0.1 N) (such that the concentration of the solution was 70 µM), and sat for several more hours at room temperature. Both acetate solutions were treated with equal volumes of sulfuric acid to elicit a color change.

S. aureus = assay: Zone of inhibition antibacterial study with drug-loaded insoluble cyclodextrin polymer disks; type: cell-based, Staphylococcus aureus; settings: approximately two weeks
Protocol: A zone of inhibition study against S. aureus was conducted for approximately two weeks using EM and AD-EM loaded into insoluble cyclodextrin polymer disks to evaluate whether the chemical modification altered the intrinsic antimicrobial activity of EM (Figure 4). […] It is possible that the slight decrease in antibacterial activity after 8 days in AD-EM (compared to EM) can be attributed to the presence of both species in the final AD-EM composition.
Synthesis of insoluble cyclodextrin polymer disks was carried out according to a previously published protocol by Thatiparti et al.. Briefly, 1 g cyclodextrin (CycloLab, Budapest, Hungary) was dissolved in 4 mL dimethylformamide (DMF) and stirred. The solution was cross-linked with hexamethylene diisocyanate (HDI; Sigma Aldrich, St. Louis, MO, USA) in a molar ratio of 1:0.16 (glucose residue: HDI). The solution was cured at 70 °C for 45 min and punched into 8 mm disks. Disks were washed to removed unreacted products over several days in 100% DMF, 50:50 DMF:water, and 100% water before use. […]
The antibacterial activity of EM and AD-EM loaded insoluble cyclodextrin polymer disks was evaluated against S. aureus (GFP labeled S. aureus kindly provided by Ed Greenfield, Case Western Reserve University, Cleveland, OH, USA) according to the protocol outlined by Thatiparti et al.. […]

[6] = aqueous buffer, thermodynamic from solid, Acetate buffer, pH 5.0, n = 3, read-out: Relative solubility in acetate buffer
[7] = aqueous buffer, thermodynamic from solid, Phosphate Buffered Saline (PBS), pH 7.4, n = 3, read-out: Relative solubility in PBS
[8] = organic solvent or mixture, thermodynamic from solid, Acetone, n = 3, read-out: Relative solubility in acetone
[9] = organic solvent or mixture, thermodynamic from solid, Ethyl Acetate, n = 3, read-out: Relative solubility in ethyl acetate
[10] = organic solvent or mixture, thermodynamic from solid, Methanol, n = 3, read-out: Relative solubility in methanol
[11] = thermodynamic from solid, Water, n = 3, read-out: Relative solubility in water

| Compound | Solubility in DMSO [1] | % Control Colonies Remaining (S. aureus biofilms [3]; 1 h drug incubation) | Original colonies in the biofilm eradicated (S. aureus biofilms [3]) | % Control Colonies Remaining (S. aureus biofilms [3]; 7 h drug incubation) | Original colonies killed (S. aureus biofilms [3]) | % Control Colonies Remaining (S. aureus biofilms [3]; 24 h drug incubation) | Additional killing compared to the 7 h time point (S. aureus biofilms [3]) | solubility [4, 6] | solubility [4, 7] | solubility [4, 8] | solubility [4, 9] | solubility [4, 10] | solubility [4, 11] | Acidic conversion over several hours (absorbance pattern, words) [5] | Zone of inhibition activity (S. aureus) | also measured |
| --- | --- | --- | --- | --- | --- | --- | --- | --- | --- | --- | --- | --- | --- | --- | --- | --- |
| NNC(=O)C12CC3CC(CC(C3)C1)C2 [AD, adamantane-1-carbohydrazide] | completely insoluble | – | – | – | – | – | – | – | – | – | – | – | – | – | – | – |
| CC[C@H]1OC(=O)[C@H](C)[C@@H](O[C@H]2C[C@@](C)(OC)[C@@H](O)[C@H](C)O2)[C@H](C)[C@@H](O[C@@H]2O[C@H](C)C[C@H](N(C)C)[C@H]2O)[C@](C)(O)C[C@@H](C)C(=O)[C@H](C)[C@@H](O)[C@]1(C)O [EM, Erythromycin] | – | 71.6% ± 40.2% | ~30% | 10.5% ± 6.8% | > 85% | 8.3% ± 6.6% | ~ 2% | 15 mg/mL (≈ 20.4 mM) | 1.6 ± 0.4 mg/mL (≈ 2.18 mM) | > 40 mg/mL | > 40 mg/mL | > 40 mg/mL | 1.5 ± 0.2 mg/mL (≈ 2.04 mM) | noticeable acidic conversion | comparable activity | Colonies remaining after extended exposure (S. aureus biofilms [2]): approximately the same number of colonies remained; Absorbance signal in acidic solution ([5]; acetate pH 5.0, several hours, after 27 N sulfuric acid, 35 μM final): 0.17; Absorbance signal, acidic solution later neutralized ([5]; acetate pH 5.0 then neutralized with NaOH, several hours): 0.22; Absorbance signal in neutral solution ([5]; neutral PBS, after 27 N sulfuric acid, 35 μM final): 0.22 |
| CC[C@H]1OC(=O)[C@H](C)[C@@H](OC2C[C@@](C)(OC)[C@@H](O)[C@H](C)O2)[C@H](C)[C@@H](OC2O[C@H](C)C[C@H](N(C)C)[C@H]2O)[C@](C)(O)C[C@@H](C)/C(=N\NC(=O)C23CC4CC(CC(C4)C2)C3)[C@H](C)[C@@H](O)[C@]1(C)O (stereo partly drawn) [AD-EM, adamantane-modified erythromycin] | slightly insoluble | 62.7% ± 22.1% | ~30% | 14.8% ± 13.7% | > 85% | 11.7% ± 7.9% | ~ 2% | 1.39 ± 0.04 mg/mL (≈ 1.53 mM) | 0.34 ± 0.01 mg/mL (≈ 0.374 mM) | 37.5 mg/mL (≈ 41.2 mM) | > 40 mg/mL | 7.3 ± 0.2 mg/mL (≈ 8.02 mM) | 0.33 ± 0.03 mg/mL (≈ 0.363 mM) | no distinguishable differences | comparable activity | solubility ([4]; several polar solvents, comparable to EM, read-out: Solubility in several polar solvents): ~40 mg/mL (≈ 43.9 mM); Acidic conversion over several days (absorbance signal, words) ([5]; pH 5.0 vs neutral, t = several days): lower absorbance signal than in neutral conditions |
